The target of this experiment is DNA polymerase theta (Homo sapiens, UniProt O75417). As to the kind of experiment: POLQ Enzyme Activity Inhibition Assay. How it is done:
The compounds to be tested were diluted to different concentrations in dimethyl sulfoxide (DMSO) using the Echo 650 pipetting system, and transferred to a 384-well plate, 20 μL/well of 100 nM POLQ was added, and the mixture was incubated at room temperature for 15 minutes. […] 20 μL/well of reaction mixture solution was added to start the enzyme reaction. […] The concentration range was from 10 μM to 0.0005 μM, and the final concentration of DMSO in the system was 0.2% v/v. The 384-well plate was reacted at room temperature for 20 minutes, and then the OD value at 340 nm was read with an Envision microplate reader.

Chain of DNA polymerase theta (O75417 whole entry): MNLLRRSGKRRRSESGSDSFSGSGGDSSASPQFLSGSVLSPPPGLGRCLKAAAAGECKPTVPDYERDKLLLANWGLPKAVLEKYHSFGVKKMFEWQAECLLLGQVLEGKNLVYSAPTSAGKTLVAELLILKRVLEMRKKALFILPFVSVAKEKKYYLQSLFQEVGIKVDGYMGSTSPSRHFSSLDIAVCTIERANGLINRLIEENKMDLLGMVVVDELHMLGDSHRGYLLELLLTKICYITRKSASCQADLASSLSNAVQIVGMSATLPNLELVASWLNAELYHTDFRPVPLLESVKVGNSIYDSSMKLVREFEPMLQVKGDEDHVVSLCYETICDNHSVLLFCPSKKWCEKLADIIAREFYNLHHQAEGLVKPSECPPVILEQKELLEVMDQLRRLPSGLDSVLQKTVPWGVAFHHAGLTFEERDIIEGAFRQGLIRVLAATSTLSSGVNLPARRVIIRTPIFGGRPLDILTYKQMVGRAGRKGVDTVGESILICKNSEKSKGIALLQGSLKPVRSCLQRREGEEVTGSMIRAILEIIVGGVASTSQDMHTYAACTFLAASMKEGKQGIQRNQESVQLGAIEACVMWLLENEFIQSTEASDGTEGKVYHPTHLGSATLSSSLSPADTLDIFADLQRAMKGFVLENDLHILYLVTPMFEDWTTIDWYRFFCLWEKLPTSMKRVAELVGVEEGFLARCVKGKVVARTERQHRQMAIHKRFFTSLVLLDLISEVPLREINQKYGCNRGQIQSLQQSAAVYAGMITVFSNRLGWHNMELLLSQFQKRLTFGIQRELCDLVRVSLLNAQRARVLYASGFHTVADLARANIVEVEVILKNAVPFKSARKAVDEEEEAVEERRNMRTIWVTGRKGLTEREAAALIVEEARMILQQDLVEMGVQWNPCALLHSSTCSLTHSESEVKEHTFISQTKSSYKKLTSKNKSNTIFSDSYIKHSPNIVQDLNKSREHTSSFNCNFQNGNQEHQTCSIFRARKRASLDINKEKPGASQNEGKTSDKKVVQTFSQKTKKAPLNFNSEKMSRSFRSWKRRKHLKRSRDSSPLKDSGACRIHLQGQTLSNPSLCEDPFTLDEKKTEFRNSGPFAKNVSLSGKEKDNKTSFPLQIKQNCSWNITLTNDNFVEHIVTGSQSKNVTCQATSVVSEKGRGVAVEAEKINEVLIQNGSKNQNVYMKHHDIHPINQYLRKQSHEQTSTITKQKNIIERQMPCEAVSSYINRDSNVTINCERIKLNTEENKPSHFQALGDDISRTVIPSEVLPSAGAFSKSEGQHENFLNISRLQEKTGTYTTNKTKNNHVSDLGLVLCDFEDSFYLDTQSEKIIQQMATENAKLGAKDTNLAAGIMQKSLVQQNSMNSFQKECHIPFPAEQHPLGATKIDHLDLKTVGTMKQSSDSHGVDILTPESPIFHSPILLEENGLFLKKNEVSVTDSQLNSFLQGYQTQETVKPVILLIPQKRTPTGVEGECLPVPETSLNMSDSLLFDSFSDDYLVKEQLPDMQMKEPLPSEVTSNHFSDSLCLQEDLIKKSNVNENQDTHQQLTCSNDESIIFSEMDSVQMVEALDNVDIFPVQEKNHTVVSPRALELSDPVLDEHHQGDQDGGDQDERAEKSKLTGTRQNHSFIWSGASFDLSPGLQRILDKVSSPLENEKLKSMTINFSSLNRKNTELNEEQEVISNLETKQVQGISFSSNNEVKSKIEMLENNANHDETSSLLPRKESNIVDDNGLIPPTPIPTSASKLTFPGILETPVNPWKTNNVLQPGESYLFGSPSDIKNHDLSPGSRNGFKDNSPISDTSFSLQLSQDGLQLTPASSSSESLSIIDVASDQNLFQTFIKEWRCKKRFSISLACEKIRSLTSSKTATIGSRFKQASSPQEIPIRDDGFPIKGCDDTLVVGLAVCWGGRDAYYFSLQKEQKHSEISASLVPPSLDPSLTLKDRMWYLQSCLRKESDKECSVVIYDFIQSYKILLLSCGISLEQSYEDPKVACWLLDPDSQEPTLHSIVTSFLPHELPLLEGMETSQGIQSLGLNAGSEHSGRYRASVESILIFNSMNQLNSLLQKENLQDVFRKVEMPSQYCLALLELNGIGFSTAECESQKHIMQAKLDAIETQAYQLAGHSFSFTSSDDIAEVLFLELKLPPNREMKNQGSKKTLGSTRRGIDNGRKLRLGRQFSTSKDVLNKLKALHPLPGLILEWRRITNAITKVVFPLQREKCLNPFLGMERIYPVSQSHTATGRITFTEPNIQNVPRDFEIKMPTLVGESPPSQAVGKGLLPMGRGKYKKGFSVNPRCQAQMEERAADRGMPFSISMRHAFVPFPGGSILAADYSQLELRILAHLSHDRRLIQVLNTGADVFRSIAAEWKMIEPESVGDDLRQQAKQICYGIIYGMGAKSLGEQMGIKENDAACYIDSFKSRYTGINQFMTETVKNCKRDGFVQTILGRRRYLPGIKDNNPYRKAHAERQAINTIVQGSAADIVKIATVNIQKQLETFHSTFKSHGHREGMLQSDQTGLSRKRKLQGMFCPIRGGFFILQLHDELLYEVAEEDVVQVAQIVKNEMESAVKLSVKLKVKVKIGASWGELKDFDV

A word on the IC50: it is the point on the concentration scale where inhibition reaches its midpoint. A higher IC50 goes with weaker potency in that assay. On to `COc1ccccc1-c1cc2c(cc1C(=O)Nc1nc3ncc(-c4ccc(C#N)cc4)nc3s1)OCO2` [US20250122221, Compound 56], for which the 50% inhibitory concentration (IC50) is less than 100 nM.

For the origin of these results see BindingDB's records for patent US20250122221 (Nanjing Zaiming Pharmaceutical, 2025).
